Source: ChEMBL document CHEMBL4680163, “Discovery of potent epidermal growth factor receptor (EGFR) degraders by proteolysis targeting chimera (PROTAC)” (Eur J Med Chem, 2020)
Calls of active or inactive are those of the source. No cut-off for these calls is given here.

System: HCC827
Experiment: Protac activity at E3 ubiquitin ligase/EGFR in human HCC827 cells assessed as increase in degradation of EGFR at 0.1 uM pretreated with (1-(6-(5-(4-(dimethylamino)piperidin-1-yl)pyridin-2-ylamino)-2-(4-fluorophenylamino)pyrido[3,4-d]pyrimidin-4-yl)piperidin-4-yl)methanol and incubated for 6 hrs followed by compound addition and measured after 32 hrs by Western blot analysis
Type: cell-based
Conditions: not given

Row | SMILES | Activity
1 | Cc1ncsc1-c1ccc(CNC(=O)[C@@H]2C[C@@H](O)CN2C(=O)[C@@H](NC(=O)CCCCCCN2CCN(c3ccc(Nc4cc5c(N6CCC(CO)CC6)nc(Nc6ccc(F)cc6)nc5cn4)nc3)CC2)C(C)(C)C)cc1 | inactive

System: HCC827
Experiment: Induction of apoptosis in human HCC827 cells assessed as early apoptotic cells at 1 uM incubated for 32 hrs by annexin V-FITC and PI staining based flow cytometry analysis (reference value: 2.72%)
Type: functional
Conditions: not given

Row | SMILES | Activity
2 | Cc1ncsc1-c1ccc(CNC(=O)[C@@H]2C[C@@H](O)CN2C(=O)[C@@H](NC(=O)CCCCCCN2CCN(c3ccc(Nc4cc5c(N6CCC(CO)CC6)nc(Nc6ccc(F)cc6)nc5cn4)nc3)CC2)C(C)(C)C)cc1 | 4.36%

System: HCC827
Experiment: Induction of cell cycle arrest in human HCC827 cells assessed as accumulation in G1 phase at 1 uM incubated for 32 hrs by PI staining based flow cytometry analysis (reference value: 50.48 %)
Type: functional
Conditions: not given

Row | SMILES | Activity
3 | Cc1ncsc1-c1ccc(CNC(=O)[C@@H]2C[C@@H](O)CN2C(=O)[C@@H](NC(=O)CCCCCCN2CCN(c3ccc(Nc4cc5c(N6CCC(CO)CC6)nc(Nc6ccc(F)cc6)nc5cn4)nc3)CC2)C(C)(C)C)cc1 | 83.15%

System: HCC827
Experiment: Induction of apoptosis in human HCC827 cells assessed as early apoptotic cells at 0.1 uM incubated for 32 hrs by annexin V-FITC and PI staining based flow cytometry analysis (reference value: 2.31 %)
Type: functional
Conditions: not given

Row | SMILES | Activity
4 | Cc1ncsc1-c1ccc(CNC(=O)[C@@H]2C[C@@H](O)CN2C(=O)[C@@H](NC(=O)CCCCCCN2CCN(c3ccc(Nc4cc5c(N6CCC(CO)CC6)nc(Nc6ccc(F)cc6)nc5cn4)nc3)CC2)C(C)(C)C)cc1 | 7.95%

System: HCC827
Experiment: Protac activity at E3 ubiquitin ligase/EGFR in human HCC827 cells assessed as increase in degradation of EGFR at 1 to 10 uM pretreated with MG-132 for 6 hrs followed by compound addition and measured after 30 hrs by Western blot analysis
Type: cell-based
Conditions: dose 1-10 µM

Row | SMILES | Activity
5 | Cc1ncsc1-c1ccc(CNC(=O)[C@@H]2C[C@@H](O)CN2C(=O)[C@@H](NC(=O)CCCCCCN2CCN(c3ccc(Nc4cc5c(N6CCC(CO)CC6)nc(Nc6ccc(F)cc6)nc5cn4)nc3)CC2)C(C)(C)C)cc1 | inactive

System: A549
Experiment: Protac activity at E3 ubiquitin ligase/EGFR in human A549 cells harboring wild type EGFR assessed as increase in degradation of EGFR at 0.1 to 10 uM incubated for 48 hrs by Western blot analysis
Type: cell-based
Conditions: dose 0.1-10 µM

Row | SMILES | Activity
6 | Cc1ncsc1-c1ccc(CNC(=O)[C@@H]2C[C@@H](O)CN2C(=O)[C@@H](NC(=O)CCCCCCN2CCN(c3ccc(Nc4cc5c(N6CCC(CO)CC6)nc(Nc6ccc(F)cc6)nc5cn4)nc3)CC2)C(C)(C)C)cc1 | Active

System: HCC827
Experiment: Induction of apoptosis in human HCC827 cells assessed as viable cells at 0.1 uM incubated for 32 hrs by annexin V-FITC and PI staining based flow cytometry analysis (reference value: 76.79 %)
Type: functional
Conditions: read-out: Activity

Row | SMILES | viability at 0.1 µM
7 | Cc1ncsc1-c1ccc(CNC(=O)[C@@H]2C[C@@H](O)CN2C(=O)[C@@H](NC(=O)CCCCCCN2CCN(c3ccc(Nc4cc5c(N6CCC(CO)CC6)nc(Nc6ccc(F)cc6)nc5cn4)nc3)CC2)C(C)(C)C)cc1 | 59.7%

System: HCC827
Experiment: Induction of cell cycle arrest in human HCC827 cells assessed as accumulation in S phase at 0.1 uM incubated for 32 hrs by PI staining based flow cytometry analysis (reference value: 41.26 %)
Type: functional
Conditions: not given

Row | SMILES | Activity
8 | Cc1ncsc1-c1ccc(CNC(=O)[C@@H]2C[C@@H](O)CN2C(=O)[C@@H](NC(=O)CCCCCCN2CCN(c3ccc(Nc4cc5c(N6CCC(CO)CC6)nc(Nc6ccc(F)cc6)nc5cn4)nc3)CC2)C(C)(C)C)cc1 | 11.67%

System: HCC827
Experiment: Antiproliferative activity against human HCC827 cells harboring EGFRDel19 mutant assessed as reduction in cell viability incubated for 72 hrs by MTT assay
Type: functional, cell-based
Conditions: HCC827, 72 h

Row | SMILES | IC50
9 | Cc1ncsc1-c1ccc(CNC(=O)[C@@H]2C[C@@H](O)CN2C(=O)[C@@H](NC(=O)CCCCCCN2CCN(c3ccc(Nc4cc5c(N6CCC(CO)CC6)nc(Nc6ccc(F)cc6)nc5cn4)nc3)CC2)C(C)(C)C)cc1 | 220 nM

System: HCC827
Experiment: (§1) Protac activity at E3 ubiquitin ligase/EGFR in human HCC827 cells assessed as increase in degradation of EGFR incubated for 48 hrs by Western blot analysis
Type: cell-based
Conditions: not given

Row | SMILES | Activity
10 | Cc1ncsc1-c1ccc(CNC(=O)[C@@H]2C[C@@H](O)CN2C(=O)[C@@H](NC(=O)CCCCCCN2CCN(c3ccc(Nc4cc5c(N6CCC(CO)CC6)nc(Nc6ccc(F)cc6)nc5cn4)nc3)CC2)C(C)(C)C)cc1 | Dose-dependent effect

System: not listed separately
Experiment: as §1
Type: cell-based
Conditions: HCC827, 48 h

Row | SMILES | DC50
11 | Cc1ncsc1-c1ccc(CNC(=O)[C@@H]2C[C@@H](O)CN2C(=O)[C@@H](NC(=O)CCCCCCN2CCN(c3ccc(Nc4cc5c(N6CCC(CO)CC6)nc(Nc6ccc(F)cc6)nc5cn4)nc3)CC2)C(C)(C)C)cc1 | 34.8 nM

System: HCC827
Experiment: Induction of apoptosis in human HCC827 cells assessed as late apoptotic cells at 1 uM incubated for 32 hrs by annexin V-FITC and PI staining based flow cytometry analysis (reference value: 18.02%)
Type: functional
Conditions: not given

Row | SMILES | Activity
12 | Cc1ncsc1-c1ccc(CNC(=O)[C@@H]2C[C@@H](O)CN2C(=O)[C@@H](NC(=O)CCCCCCN2CCN(c3ccc(Nc4cc5c(N6CCC(CO)CC6)nc(Nc6ccc(F)cc6)nc5cn4)nc3)CC2)C(C)(C)C)cc1 | 63.29%

System: HCC827
Experiment: Protac activity at E3 ubiquitin ligase/EGFR in human HCC827 cells assessed as increase in degradation of EGFR at 1 to 10 uM pretreated with MLN-4924 for 6 hrs followed by compound addition and measured after 30 hrs by Western blot analysis
Type: cell-based
Conditions: dose 1-10 µM

Row | SMILES | Activity
13 | Cc1ncsc1-c1ccc(CNC(=O)[C@@H]2C[C@@H](O)CN2C(=O)[C@@H](NC(=O)CCCCCCN2CCN(c3ccc(Nc4cc5c(N6CCC(CO)CC6)nc(Nc6ccc(F)cc6)nc5cn4)nc3)CC2)C(C)(C)C)cc1 | Active

System: HCC827
Experiment: Protac activity at E3 ubiquitin ligase/EGFR in human HCC827 cells assessed as increase in degradation of EGFR at 100 nM pretreated with VHL-L for 5 hrs followed by compound addition and measured after 32 hrs by Western blot analysis
Type: cell-based
Conditions: not given

Row | SMILES | Activity
14 | Cc1ncsc1-c1ccc(CNC(=O)[C@@H]2C[C@@H](O)CN2C(=O)[C@@H](NC(=O)CCCCCCN2CCN(c3ccc(Nc4cc5c(N6CCC(CO)CC6)nc(Nc6ccc(F)cc6)nc5cn4)nc3)CC2)C(C)(C)C)cc1 | inactive

System: A-431
Experiment: Antiproliferative activity against human A-431 cells harboring EGFR assessed as reduction in cell viability incubated for 72 hrs by MTT assay
Type: functional, cell-based
Conditions: A-431, 72 h

Row | SMILES | IC50
15 | Cc1ncsc1-c1ccc(CNC(=O)[C@@H]2C[C@@H](O)CN2C(=O)[C@@H](NC(=O)CCCCCCN2CCN(c3ccc(Nc4cc5c(N6CCC(CO)CC6)nc(Nc6ccc(F)cc6)nc5cn4)nc3)CC2)C(C)(C)C)cc1 | > 10 µM
